Measurements from patent publication US10392383B2, “3-(1H-benzo[d]imidazol-2-yl)-1H-pyrazolo[4,3-b]pyridines and therapeutic uses thereof” (Samumed, LLC, priority 2015, dated 2019).

Columns and labels:
[1] = test system: primary human fibroblasts derived from IPF patients (LL29 cells) treated with TGF-β1; experiment: Inhibition of the fibrotic process: αSMA staining in TGF-β1-treated LL29 fibroblasts; format: cell-based; details: Fibroblast; for EC50: 96 h, LL29 fibroblasts treated with TGF-β1 (20 ng/mL), 4 days, Table 4; for inhibition at 10 µM: LL29 fibroblasts treated with TGF-β1, Table 4, read-out: percent inhibition at 10 μM (given in parentheses for EC50 >10 μM)
How it was run: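 EC50 from triplicate-well dose-response fits of % αSMA-positive cells, normalized to TGF-β1-stimulated DMSO controls, with SYTOX-positive dead cells excluded. LL29 IPF fibroblasts received compound at 10 μM–1.87 nM (0.1% DMSO) plus 20 ng/mL TGF-β1 for 4 days in 1% FBS medium; above 10 μM, % inhibition at 10 μM reported.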

[2] = test system: Wnt activity (Sp5-Luc reporter, Wnt-responsive promoter) in SW480 colon carcinoma cells; experiment: Wnt activity screening assay: Sp5-Luc reporter gene assay in SW480 cells; format: cell-based; details: Homo sapiens, overnight incubation, 10-point curve starting from 10 μM
How it was run: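 Luminescence read-out (BrightGlo) from stable Sp5-Luc SW480 cells, normalized to DMSO-only wells. Cells were treated overnight at 37° C in 1% FBS medium across a 1:3, 10-point series starting at 10 μM. EC50 from variable-slope four-parameter regression; percent inhibition at 10 μM given where EC50 >10 μM.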

SMILES | EC50 [2] [nM] | EC50 [1] [nM] | inhibition at 10 µM [1] [%]
CC(C)CC(=O)Nc1cncc(-c2ccc3[nH]nc(-c4nc5c(-c6cccc(F)c6)cccc5[nH]4)c3n2)c1 [Compound 2, N-(5-(3-(4-(3-Fluorophenyl)-1H-benzo[d]imidazol-2-yl)-1H-pyrazolo[4,3-b]pyridin-5-yl)pyridin-3-yl)-3-methylbutanamide] | 1160 | 9860 | 
CN(C)c1cncc(-c2ccc3[nH]nc(-c4nc5c(-c6cccc(F)c6)cccc5[nH]4)c3n2)c1 [Compound 7, 5-(3-(4-(3-fluorophenyl)-1H-benzo[d]imidazol-2-yl)-1H-pyrazolo[4,3-b]pyridin-5-yl)-N,N-dimethylpyridin-3-amine] | 779 | 1440 | 
Fc1cccc(-c2cccc3[nH]c(-c4n[nH]c5ccc(-c6ccncc6)nc45)nc23)c1 [Compound 18, 3-(4-(3-Fluorophenyl)-1H-benzo[d]imidazol-2-yl)-5-(pyridin-4-yl)-1H-pyrazolo[4,3-b]pyridine] | 1320 | 231 | 
O=C(Nc1cncc(-c2ccc3[nH]nc(-c4nc5c(N6CCCCC6)cccc5[nH]4)c3n2)c1)C1CC1 [Compound 188, N-(5-(3-(4-(Piperidin-1-yl)-1H-benzo[d]imidazol-2-yl)-1H-pyrazolo[4,3-b]pyridin-5-yl)pyridin-3-yl)cyclopropanecarboxamide] | 3730 | > 10000 | 49.2
FC1(F)CCN(Cc2cncc(-c3ccc4[nH]nc(-c5nc6c(N7CCCCC7)cccc6[nH]5)c4n3)c2)C1 [Compound 194, 5-(5-((3,3-Difluoropyrrolidin-1-yl)methyl)pyridin-3-yl)-3-(4-(piperidin-1-yl)-1H-benzo[d]imidazol-2-yl)-1H-pyrazolo[4,3-b]pyridine] | 3910 | 6660 | 
Cc1cn(-c2cccc3[nH]c(-c4n[nH]c5ccc(-c6cncc(NC(=O)C(C)(C)C)c6)nc45)nc23)cn1 [Compound 204, N-(5-(3-(4-(4-Methyl-1H-imidazol-1-yl)-1H-benzo[d]imidazol-2-yl)-1H-pyrazolo[4,3-b]pyridin-5-yl)pyridin-3-yl)pivalamide] | 1240 | 997 | 
Cc1cn(-c2cccc3[nH]c(-c4n[nH]c5ccc(-c6cncc(NC(=O)C7CCC7)c6)nc45)nc23)cn1 [Compound 217, N-(5-(3-(4-(4-Methyl-1H-imidazol-1-yl)-1H-benzo[d]imidazol-2-yl)-1H-pyrazolo[4,3-b]pyridin-5-yl)pyridin-3-yl)cyclobutanecarboxamide] | 2840 | > 10000 | 0
c1cncc(-c2ccc3[nH]nc(-c4nc5ccccc5[nH]4)c3n2)c1 [Compound 256, 3-(1H-Benzo[d]imidazol-2-yl)-5-(pyridin-3-yl)-1H-pyrazolo[4,3-b]pyridine] | 5480 | > 10000 | 0
c1ccc(-c2ccc3[nH]nc(-c4nc5ccccc5[nH]4)c3n2)nc1 [Compound 280, 3-(1H-Benzo[d]imidazol-2-yl)-5-(pyridin-2-yl)-1H-pyrazolo[4,3-b]pyridine] | 611 | 4740 | 
Cc1ccncc1-c1ccc2[nH]nc(-c3nc4c(-c5ccsc5)cccc4[nH]3)c2n1 [Compound 285, 5-(4-Methylpyridin-3-yl)-3-(4-(thiophen-3-yl)-1H-benzo[d]imidazol-2-yl)-1H-pyrazolo[4,3-b]pyridine] | 986 | > 10000 | 0
c1ccc(CNCc2cncc(-c3ccc4[nH]nc(-c5nc6c(-c7ccsc7)cccc6[nH]5)c4n3)c2)cc1 [Compound 304, N-Benzyl-1-(5-(3-(4-(thiophen-3-yl)-1H-benzo[d]imidazol-2-yl)-1H-pyrazolo[4,3-b]pyridin-5-yl)pyridin-3-yl)methanamine] | 2760 | 2200 | 
FC1(F)CCN(Cc2cncc(-c3ccc4[nH]nc(-c5nc6c(-c7ccsc7)cccc6[nH]5)c4n3)c2)C1 [Compound 306, 5-(5-((3,3-Difluoropyrrolidin-1-yl)methyl)pyridin-3-yl)-3-(4-(thiophen-3-yl)-1H-benzo[d]imidazol-2-yl)-1H-pyrazolo[4,3-b]pyridine] | 1650 | 1230 | 
CCNCc1cncc(-c2ccc3[nH]nc(-c4nc5c(-c6ccoc6)cccc5[nH]4)c3n2)c1 [Compound 314, N-((5-(3-(4-(Furan-3-yl)-1H-benzo[d]imidazol-2-yl)-1H-pyrazolo[4,3-b]pyridin-5-yl)pyridin-3-yl)methyl)ethanamine] | 3250 | > 10000 | 0
O=C(Nc1cncc(-c2ccc3[nH]nc(-c4nc5c(-c6cccs6)cccc5[nH]4)c3n2)c1)C1CC1 [Compound 356, N-(5-(3-(4-(Thiophen-2-yl)-1H-benzo[d]imidazol-2-yl)-1H-pyrazolo[4,3-b]pyridin-5-yl)pyridin-3-yl)cyclopropanecarboxamide] | 3380 | > 10000 | 0

Continued by falling EC50 [2], values first:

EC50 [2] [nM] | SMILES | EC50 [1] [nM] | inhibition at 10 µM [1] [%]
8530 | CN1CCN(c2cccc3[nH]c(-c4n[nH]c5ccc(-c6cncc(NC(=O)C7CCCC7)c6)nc45)nc23)CC1 [Compound 246, N-(5-(3-(4-(4-Methylpiperazin-1-yl)-1H-benzo[d]imidazol-2-yl)-1H-pyrazolo [4,3-b]pyridin-5-yl)pyridin-3-yl)cyclopentanecarboxamide] | 4940 | 
4110 | Cc1cn(-c2cccc3[nH]c(-c4n[nH]c5ccc(-c6cncc(CN7CCCC7)c6)nc45)nc23)cn1 [Compound 210, 3-(4-(4-Methyl-1H-imidazol-1-yl)-1H-benzo[d]imidazol-2-yl)-5-(5-(pyrrolidin-1-ylmethyl)pyridin-3-yl)-1H-pyrazolo[4,3-b]pyridine] | > 10000 | 30.4
4100 | CN(C)Cc1cncc(-c2ccc3[nH]nc(-c4nc5c(-c6cccs6)cccc5[nH]4)c3n2)c1 [Compound 349, N,N-dimethyl-1-(5-(3-(4-(thiophen-2-yl)-1H-benzo[d]imidazol-2-yl)-1H-pyrazolo[4,3-b]pyridin-5-yl)pyridin-3-yl)methanamine] | 2500 | 
3770 | c1csc(-c2cccc3[nH]c(-c4n[nH]c5ccc(-c6ccncc6)nc45)nc23)c1 [Compound 354, 5-(Pyridin-4-yl)-3-(4-(thiophen-2-yl)-1H-benzo[d]imidazol-2-yl)-1H-pyrazolo[4,3-b]pyridine] | > 10000 | 31.2
3550 | CC(C)(C)CC(=O)Nc1cncc(-c2ccc3[nH]nc(-c4nc5ccccc5[nH]4)c3n2)c1 [Compound 268, N-(5-(3-(1H-Benzo[d]imidazol-2-yl)-1H-pyrazolo[4,3-b]pyridin-5-yl)pyridin-3-yl)-3,3-dimethylbutanamide] | 2380 | 
3520 | CCC(=O)Nc1cncc(-c2ccc3[nH]nc(-c4nc5c(-c6cccs6)cccc5[nH]4)c3n2)c1 [Compound 337, N-(5-(3-(4-(Thiophen-2-yl)-1H-benzo[d]imidazol-2-yl)-1H-pyrazolo[4,3-b]pyridin-5-yl)pyridin-3-yl)propionamide] | 680 | 
1980 | O=C(Nc1cncc(-c2ccc3[nH]nc(-c4nc5ccccc5[nH]4)c3n2)c1)C1CCCCC1 [Compound 275, N-(5-(3-(1H-Benzo[d]imidazol-2-yl)-1H-pyrazolo[4,3-b]pyridin-5-yl)pyridin-3-yl) cyclohexanecarboxamide] | 80.8 | 
1720 | CN(C)c1cncc(-c2ccc3[nH]nc(-c4nc5c(-c6cccs6)cccc5[nH]4)c3n2)c1 [Compound 343, N,N-Dimethyl-5-(3-(4-(thiophen-2-yl)-1H-benzo[d]imidazol-2-yl)-1H-pyrazolo[4,3-b]pyridin-5-yl)pyridin-3-amine] | 1180 | 
1360 | CCC(=O)Nc1cncc(-c2ccc3[nH]nc(-c4nc5c(-c6cccc(F)c6)cccc5[nH]4)c3n2)c1 [Compound 1, N-(5-(3-(4-(3-Fluorophenyl)-1H-benzo[d]imidazol-2-yl)-1H-pyrazolo[4,3-b]pyridin-5-yl)pyridin-3-yl)propionamide] | 1180 | 
1080 | O=C(Nc1cncc(-c2ccc3[nH]nc(-c4nc5c(-c6cccc(F)c6)cccc5[nH]4)c3n2)c1)C1CC1 [Compound 20, N-(5-(3-(4-(3-Fluorophenyl)-1H-benzo[d]imidazol-2-yl)-1H-pyrazolo[4,3-b]pyridin-5-yl)pyridin-3-yl)cyclopropanecarboxamide] | 1200 | 
1040 | Cc1cn(-c2cccc3[nH]c(-c4n[nH]c5ccc(-c6cncc(NC(=O)CC(C)C)c6)nc45)nc23)cn1 [Compound 198, 3-Methyl-N-(5-(3-(4-(4-methyl-1H-imidazol-1-yl)-1H-benzo[d]imidazol-2-yl)-1H-pyrazolo[4,3-b]pyridin-5-yl)pyridin-3-yl)butanamide] | 1890 | 
643 | CCCC(=O)Nc1cncc(-c2ccc3[nH]nc(-c4nc5c(-c6ccsc6)cccc5[nH]4)c3n2)c1 [Compound 297, N-(5-(3-(4-(Thiophen-3-yl)-1H-benzo[d]imidazol-2-yl)-1H-pyrazolo[4,3-b]pyridin-5-yl)pyridin-3-yl)butyramide] | 1300 | 
637 | CN(C)Cc1cncc(-c2ccc3[nH]nc(-c4nc5c(-c6cccc(F)c6)cccc5[nH]4)c3n2)c1 [Compound 13, 1-(5-(3-(4-(3-Fluorophenyl)-1H-benzo[d]imidazol-2-yl)-1H-pyrazolo[4,3-b]pyridin-5-yl)pyridin-3-yl)-N,N-dimethylmethanamine] | 616 | 
